# Measured values taken from a melting point compilation (Tetko et al.; mined from patent text by program, amines drawn as free bases though some values may be those of a salt).
row,SMILES,melting point [°C]
1,COc1ccc(-c2cnc(NS(=O)(=O)Cc3ccccc3)c(Cc3ccccc3)n2)cc1,213 to 215
2,CCC(C(=O)c1ccc(N(CCN(CC)CC)S(C)(=O)=O)cc1)c1ccccc1 (stereo not drawn),76 to 77
3,C/C(=N\O)c1cccc(NC(=O)NCC(=O)N(CC(=O)N2CCCC(C)(C)C2)c2ccccc2)c1,248
4,CCNS(=O)(=O)/C=C/C1=C(C)NC(C)=C(C(=O)OC(C)C)C1c1cccc([N+](=O)[O-])c1 (stereo not drawn),187 to 189
5,COc1ccc(-c2nc(C#N)oc2-c2ccc(OC)cc2)cc1,110 to 112
6,CCOC(=O)COc1ccc(-c2nc(-c3ccc(C)cc3)nc(-c3ccc(C)cc3)n2)c(O)c1,166 to 167
7,Clc1nnnc(-c2cccc3ccccc23)c1Cl,165 to 170
8,CC(=O)NC1CCC(N2CCNC2=O)CC1 (stereo not drawn),211 to 230
9,O=C(Nc1ccc(F)cc1)[C@H]1CCCN(C(=O)c2ccc(F)cc2)C1,163 to 164
10,CC(C)OC(=O)C=Cc1cc([N+](=O)[O-])ccc1Cl,74 to 75
11,C=CC(=O)Oc1cccc(-c2ccc3cc(OC(=O)C=C)ccc3c2)c1,75.4
12,CCCC1CCC2C3CCc4cc(O)ccc4C3CCC12C (stereo not drawn),130 to 131
13,CNC(=O)Nc1ccc(Oc2ccc3c(c2)CCC(C)(OC)O3)cc1 (stereo not drawn),140
14,CCCCCCCCCCCCn1nnc(C(C(=O)Nc2c(C(C)C)cccc2C(C)C)N2CCSCC2)n1 (stereo not drawn),97 to 98
15,CC(C)C(NC(=O)OCc1ccccc1)C(=O)NC(Cc1ccccc1)C(O)C(Cc1ccccc1)NC(=O)C(NC(=O)N1CCN(C)CC1)C(C)C (stereo not drawn),175 to 176
16,COc1ccccc1Oc1c(NS(=O)(=O)c2ccc(C)cn2)nc(N2CCOCC2)nc1OCCO,195 to 196
17,CC(=O)Oc1cc(N2C(=O)CC(SC3CCCCC3)C2=O)ccc1C(=O)O (stereo not drawn),155 to 158
18,CC(C)(C)c1nnc(NC(=O)CC(=O)CBr)s1,128 to 130
19,Cc1ncccc1Cn1nnnc1-c1cc(Cl)ccc1Cl,172 to 174
20,CC(C)(Cc1c(Cc2ccccc2)c2cc(OCc3ccc4ccccc4n3)ccc2n1Cc1ccc(Cl)cc1)C(=O)O,178
21,CC(C)(C)OC(=O)NCCNC(=O)c1ncccc1Oc1cccc(Cl)c1,86 to 87
22,O=[PH](O)Cc1ccc(P(c2ccccc2)c2ccccc2)cc1,40
23,CC(C)n1c(/C=C/[C@H]2C[C@H](CC(=O)OC(C)(C)C)OC(C)(C)O2)c(-c2ccc(F)cc2)c(-c2ccccc2)c1C(N)=O,73 to 75
24,COC(=O)CCc1cc(C(=O)c2cccc(C(=O)OC)n2)ccc1O,121 to 122
25,COc1ccc(Cc2cc3c(cc2OC)OCO3)cc1,56 to 57

row,SMILES,melting point [°C]
1,O=c1cc(-c2ccncc2)nc2n1CC(F)(F)CN2,239 to 240
2,Cc1n[nH]c(=O)n1N=Cc1cccnc1,208 to 210
3,CCOC(=O)c1[nH]c(CC)nc1C(C)(C)O,181 to 184
4,COc1cc(C)c(C(=O)c2c(F)ncc(C)c2I)c(OC)c1OC,140 to 141
5,COC(=O)c1cccc(Cn2ccc(OCc3ccc(F)cc3F)c(Cl)c2=O)c1F,171 to 174
6,N#Cc1c(Br)c(Br)n(O)c1-c1ccc(Cl)cc1,208 to 209
7,CCOP(=O)(Cc1ccc(NC(=O)c2sc(SC)c3c2CCc2nc(C)oc2-3)cc1)OCC,197 to 198
8,COc1ccc(NC(=O)CCCCC(=O)N(C)OC)cc1,89 to 90
9,O=C1CSc2nc(C34CC5CC(CC(C5)C3)C4)cn21,130 to 132
10,CC(=O)OC(C(Oc1ccccc1)n1ccnc1)C(C)(C)C (stereo not drawn),114 to 121
11,COc1ccc2c3c(c(=O)oc2c1)CN(CC(C)=O)CC3,123 to 125
12,CCOC(=O)C1C(=O)CC(C)(O)C(C(=O)OCC)C1c1cc(C)c2oc(C)c(C)c2c1 (stereo not drawn),168 to 171
13,COc1cc(C(C)C(=O)O)cc2ccc3ccccc3c(=O)c12 (stereo not drawn),144 to 147
14,Cc1ncc2cc(-c3c(C)cccc3Cl)c(N)nc2n1,267 to 271
15,CS(=O)(=O)Nc1ccc2ncnc(N)c2c1,287 to 290
16,CN(C(=O)Cc1csc(N)n1)c1ccc(Cl)cc1,148 to 150
17,N=C(Nc1ccc(CNCc2ccccc2)cc1)c1cccs1,73 to 74
18,CC(=O)C1(COC(N)=O)CC2C=CC1C2 (stereo not drawn),118 to 119
19,Nc1ccc(Oc2cc(Cl)ncn2)cc1,136 to 138
20,N#Cc1ncn2c1[C@@H]1CCCN1C(=O)c1ccccc1-2,223 to 225
21,CC1(C)C2CC[C@@]1(C)C(=O)C(C(=O)Nc1ccc(F)c(C(F)(F)F)c1)C2=O (stereo partly drawn),96 to 98
22,O=C(O)c1ccc2c(=O)[nH]c(=O)n(CCCCN3CCC(OC(c4ccccc4)c4ccccc4)CC3)c2c1,177 to 179
23,CCCCN(C)CCOc1ccc(-n2c(-c3ccc(O)cc3)c(C)c3cc(O)ccc32)cc1,102 to 107
24,CNC(=O)c1cnc(Cl)cc1-c1ccccc1C,91 to 93
25,CS(=O)(=O)c1ccc(-c2nn(Cc3ccc(F)cc3F)c(=O)cc2-c2ccc(Cl)cc2)cc1,174

row,SMILES,melting point [°C]
1,CN1CC(C(=O)c2nc(Cc3ccc(F)cc3)co2)=C(O)C1=O,209 to 210
2,NC(=O)C1CN(Cc2nc(-c3ccccc3)c(-c3ccccc3)o2)CCN1CC(=O)Nc1c(Cl)cc(N)cc1Cl (stereo not drawn),137 to 139
3,Cc1nc2c3c(c(C(=O)N4CCCC4)cc2n1C)CCC1(Cc2ccccc2C1)N3,263 to 264
4,COCCOCCCCC(=O)c1ccc(Br)cc1,25.5 to 26.5
5,O=C(CCC(=O)N1CCC[C@H]1C(=O)O)c1ccc(Cl)s1,131 to 133
6,COc1ncnc(-c2cc([N+](=O)[O-])c(F)cc2F)c1Cl,84 to 88
7,COCCNC(=O)c1cc(-c2cccc3cc(Cc4cc(F)cc(Cl)c4)sc23)ccc1F,84 to 85
8,Cc1cc(-c2nc3cccnn3c2-c2ccnc(NC(=O)Nc3ccc(C#N)cc3)c2)ccc1F,204 to 206
9,COc1cc(C2CCN(C[C@H](Oc3ncc4ccc(-c5ccccc5OC)n4n3)C(F)(F)F)CC2)ccc1N,73 to 82
10,COC(=O)c1cc(C(=O)OC)cc(-c2ccc(C=O)cc2)c1,166 to 169
11,C=C(C)C(=O)Nc1ccc(Nc2ccccc2)cc1,101 to 103
12,CCOC(=O)Nc1ncc(-c2nc3ccccc3c(=O)n2-c2cccc(OC)c2)s1,235 to 236
13,COCCOCOc1ccc(-c2nnc(S)o2)cc1OCOCCOC,84
14,CCCCCS(=O)(=O)NCC(=O)O,87 to 90
15,CCCCOc1cc(/C=C(\OCC)C(=O)O)ccc1OCCc1ccc(OS(=O)(=O)CCCC)c(F)c1,99
16,CN1c2cccc3c2N(CCC3)S1(=O)=O,103 to 104
17,Nc1nc(N)nc(-c2ccc(C(O)c3ccccc3)cc2)n1 (racemic),214 to 216
18,CCC(=O)c1onc2ccccc12,51 to 53
19,Cc1nc(Cc2ccc(NC(=O)/C=C/c3cnn(C)c3-c3ccc(F)cc3)cc2)no1,183 to 184
20,COc1ccc(-c2[nH]nc3c2C(=O)c2c(NC(=O)CN4CCNCC4)cccc2-3)cc1,277
21,COc1ccc(N2C(=O)N(c3cccc(C#N)c3)c3nc(Nc4cccc(CCO)c4)ncc3C2C)cc1 (stereo not drawn),195 to 200
22,CCc1nc2c(N)nc3cc(-c4cccnc4)ccc3c2n1CC(C)(C)O,245 to 247
23,CC(C)N(Cc1c(-c2ccccc2)sc(N2C(=O)c3ccccc3C2=O)c1C(=O)c1ccc(Cl)cc1)C(C)C,168 to 170
24,CON=Cc1nc2c(N)nc3cc(Br)ccc3c2s1,262 to 264
25,CCCCc1ccc(NC(=O)NOCc2ccccc2)cc1,90.6 to 91.4

row,SMILES,melting point [°C]
1,N#Cc1ccc2cc(C(N)=O)[nH]c2c1,241 to 242
2,CC(=O)Nc1nc(-c2cc(C)cc(C)c2)c(-c2ccncc2)s1,284 to 286
3,CC(C)COc1ccc(-c2nc3cccc(C(=O)O)c3s2)cc1C#N,268 to 270
4,CCOC(=O)CCCCCCCCCCSc1nc(-c2ccccc2)c(-c2ccccc2)[nH]1,57 to 59
5,c1c[nH]c(C(c2ccc[nH]2)C23CC4CC(C2)CC(C(c2ccc[nH]2)c2ccc[nH]2)(C4)C3)c1,110 to 112
6,COC(=O)c1ccc(O)c(N)c1C(=O)OC,112 to 113
7,COCC(c1cc(C)ccc1C)S(=O)(=O)c1ccccn1 (stereo not drawn),91 to 93
8,Nc1c(Cl)cc(I)cc1Cl,100 to 102
9,CCCCCC1OCc2cc(C(=O)O)ccc2O1 (stereo not drawn),148
10,CCOc1cc(Cl)c2cc(F)c(F)c(F)c2n1,45
11,CCOC(=O)c1nc(C=Cc2cccc(C(F)(F)F)c2)oc1C,103 to 104
12,O=C(O)CN1CCNCC1,130 to 132
13,COc1ccc(NC(=O)N(Cc2ccccc2)Cc2cccnc2)c(NC(=O)c2cc(C(C)(C)C)c(O)c(C(C)(C)C)c2)c1,120 to 128
14,COC(=O)c1ccc(Cc2cccc3ccc(C(=O)O)cc23)c(OC)c1,229 to 230
15,CCCC(=O)Oc1cc(C(C)C)ccc1C1(OC(=O)CCC)C(=O)c2ccccc2C1=O,98 to 102
16,CC(C)(C)c1ccc(S(=O)(=O)N2c3ccccc3C[C@H]2C(=O)NCc2ccc(CCC(=O)O)cc2)cc1,80 to 85
17,Cc1ccc(-c2nc3cc([N+](=O)[O-])ccc3o2)s1,163 to 165
18,O=C(O)CN1C(=O)C(NC(=O)Nc2ccc(Cl)cc2)N=C(c2ccccc2)c2ccccc21 (stereo not drawn),178 to 180
19,COc1ccccc1NC(=O)Nc1ccc(CC(=O)OC(C)(C)C)cc1OC,132 to 134
20,CN1C(=O)CN=C(c2ccccc2F)c2cc(CCN)ccc21,125
21,CC1=CC2C(=O)NC(=O)C2(Cc2ccccc2)C=C1 (stereo not drawn),128 to 130
22,Cc1nc(C)c(Cl)c(NCc2ccc(Oc3ccc4ncc([N+](=O)[O-])n4n3)c(OCC3CC3)c2)n1,178 to 180
23,CC(Oc1ccc2nc(NC(=O)NCCN3CCN(Cc4ccccc4)CC3)sc2c1)c1c(Cl)ccc(F)c1Cl (stereo not drawn),125 to 139
